Laboratory results reported in PubChem BioAssay AID248 (DTP/NCI, 2004).
“And” between values parts separate entries of the source, which are not always exact repeats. Identical values can stand only once. Toxic doses and inconclusive results are not listed. No stated cut-off is given here; in the data, active means T/C of 150% or more; inactive means T/C below 125%.

Test system: L1210 leukemia ip in BDF1 mice, survival T/C
Experiment: NCI In Vivo Anticancer Drug Screen. Data for tumor model L1210 Leukemia (intraperitoneal) in B6D2F1 (BDF1) mice
Conditions: endpoint: mean survival time, higher = longer survival
In short: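 Ratio derived from survival: compound-dosed mice over vehicle-dosed mice, all bearing a transplantable tumor.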

[1] = dose: 50.0 mg/kg/injection, schedule: Q04DX003 (ip), vehicle: saline with Tween-80
[2] = dose: 100.0 mg/kg/injection, schedule: Q04DX003 (ip), vehicle: saline with Tween-80
[3] = dose: 100.0 mg/kg/injection, schedule: Q01DX009 (ip), vehicle: Klucel (hydroxypropylcellulose) (HPC)
[4] = dose: 200.0 mg/kg/injection, schedule: Q01DX009 (ip), vehicle: Klucel (hydroxypropylcellulose) (HPC)
[5] = dose: 400.0 mg/kg/injection, schedule: Q01DX009 (ip), vehicle: Klucel (hydroxypropylcellulose) (HPC)
[6] = dose: 50.0 mg/kg/injection, schedule: Q01DX001 (ip), vehicle: carboxymethylcellulose (CMC)
[7] = dose: 100.0 mg/kg/injection, schedule: Q01DX001 (ip), vehicle: carboxymethylcellulose (CMC)
[8] = dose: 200.0 mg/kg/injection, schedule: Q01DX001 (ip), vehicle: carboxymethylcellulose (CMC)
[9] = dose: 400.0 mg/kg/injection, schedule: Q01DX001 (ip), vehicle: carboxymethylcellulose (CMC)
[10] = dose: 100.0 mg/kg/injection, schedule: Q04DX003 (ip), vehicle: Klucel (hydroxypropylcellulose) (HPC)
[11] = dose: 200.0 mg/kg/injection, schedule: Q04DX003 (ip), vehicle: Klucel (hydroxypropylcellulose) (HPC)
[12] = dose: 400.0 mg/kg/injection, schedule: Q04DX003 (ip), vehicle: Klucel (hydroxypropylcellulose) (HPC)
[13] = dose: 100.0 mg/kg/injection, schedule: Q01DX001 (ip), vehicle: saline
[14] = dose: 200.0 mg/kg/injection, schedule: Q01DX001 (ip), vehicle: saline
[15] = dose: 400.0 mg/kg/injection, schedule: Q01DX001 (ip), vehicle: saline
[16] = dose: 200.0 mg/kg/injection, schedule: Q04DX003 (ip), vehicle: saline with Tween-80

Measured: T/C

CC1(c2cccc3ccccc23)OCC2(CCCCC2)CO1
inactive: dose: 81.3 mg/kg/injection, schedule: Q01DX009 (ip), vehicle: DMSO 109 % of control | dose: 100.0 mg/kg/injection, schedule: Q04DX003 (ip), vehicle: DMSO 92 % of control | dose: 200.0 mg/kg/injection, schedule: Q04DX003 (ip), vehicle: DMSO 90 % of control | dose: 400.0 mg/kg/injection, schedule: Q04DX003 (ip), vehicle: DMSO 95 % of control

CS(=O)(=O)OCCN(CCOS(C)(=O)=O)c1cccc([N+](=O)[O-])c1
inactive: dose: 1.0 mg/kg/injection, schedule: Q01DX001 (ip), vehicle: saline 101 % of control | dose: 2.0 mg/kg/injection, schedule: Q01DX001 (ip), vehicle: saline 101 % of control | dose: 4.0 mg/kg/injection, schedule: Q01DX001 (ip), vehicle: saline 101 % of control | dose: 8.0 mg/kg/injection, schedule: Q01DX001 (ip), vehicle: saline 102 % of control | dose: 152.0 mg/kg/injection, schedule: Q01DX001 (ip), vehicle: saline 113 % of control | dose: 228.0 mg/kg/injection, schedule: Q01DX015 (ip), vehicle: saline 118 % of control | dose: 342.0 mg/kg/injection, schedule: Q01DX001 (ip), vehicle: saline 95 % of control | dose: 342.0 mg/kg/injection, schedule: Q01DX015 (ip), vehicle: saline 92 % of control | dose: 1024.0 mg/kg/injection, schedule: Q01DX001 (ip), vehicle: saline 102 % of control

O=c1ccoc(-c2cc(=O)cco2)c1
inactive: dose: 25.0 mg/kg/injection, schedule: Q04DX003 (ip), vehicle: saline with Tween-80 97 % of control | [1] 93 % of control | [2] 95 % of control

COc1cccc(C(=NC(=O)c2ccccc2)c2ccccc2)c1
inactive: [3] 100 % of control | [4] 97 % of control | [5] 91 % of control

COc1ccc(-c2ccccc2)cc1S
inactive: [6] 95 % of control | [7] 98 % of control | [8] 93 % of control | [9] 98 % of control

CC(O)C(c1ccccc1)S(C)(=O)=O (centres undefined)
inactive: [3] 117 % of control | [10] 104 % of control | [4] 96 % of control | [11] 111 % of control | [5] 95 % of control | [12] 94 % of control

CCNC(=O)CCCC(=O)OC
inactive: [13] 94 % of control | [14] 103 % of control | [15] 97 % of control

COc1cccc(C2N(Cc3ccc(N(CCCl)CCCl)cc3C)CCCN2Cc2ccc(N(CCCl)CCCl)cc2C)c1O
inactive: [6] 116 % of control | [7] 120 % of control | [8] 100 % of control

Cc1cc(C)c(O)c(C(C)(C)C)c1
inactive: [1] 102 % of control | [2] 101 % of control | [16] 107 % of control

Nc1nc(N)c(CCCCc2ccccc2)c(N)n1
inactive: dose: 50.0 mg/kg/injection, schedule: Q01DX009 (ip), vehicle: Klucel (hydroxypropylcellulose) (HPC) 87 % of control | dose: 50.0 mg/kg/injection, schedule: Q01DX Z (ip), vehicle: carboxymethylcellulose (CMC) 95 % of control | [3] 95 % of control

NC(CSC(c1ccccc1)(c1ccccc1)c1ccccc1)C(=O)OC(c1ccccc1)c1ccccc1 (centres undefined)
inactive: dose: 264.0 mg/kg/injection, schedule: Q01DX001 (ip), vehicle: carboxymethylcellulose (CMC) 113 % of control

CN(C)CCCOS(C)(=O)=O
inactive: dose: 100.0 mg/kg/injection, schedule: Q04DX002 (ip), vehicle: saline with Tween-80 105 % of control | dose: 200.0 mg/kg/injection, schedule: Q04DX002 (ip), vehicle: saline with Tween-80 99 % of control

Brc1cc(Br)c2c(c1)-c1ccccc1C2
inactive: [7] 96 % of control | [8] 113 % of control | [9] 96 % of control

FC1(F)C2Cc3ccccc3C2C1(F)F (centres undefined)
inactive: [10] 96 % of control | [11] 98 % of control | [12] 100 % of control

O=S(=O)(/C(=C\c1ccccc1)c1ccccc1)c1ccccc1
inactive: [13] 90 % of control | [14] 93 % of control | [15] 93 % of control

OCCN1CCN(c2ccccc2)CC1
inactive: dose: 50.0 mg/kg/injection, schedule: Q04DX003 (ip), vehicle: saline 104 % of control | dose: 100.0 mg/kg/injection, schedule: Q04DX003 (ip), vehicle: saline 113 % of control | dose: 200.0 mg/kg/injection, schedule: Q04DX003 (ip), vehicle: saline 102 % of control

COc1ccc2c(c1C)CCC1(C(=O)O)CC(C)C(O)CC21 (centres undefined)
inactive: dose: 100.0 mg/kg/injection, schedule: Q01DX009 (ip), vehicle: saline sonified 98 % of control | dose: 200.0 mg/kg/injection, schedule: Q01DX009 (ip), vehicle: saline sonified 96 % of control | dose: 400.0 mg/kg/injection, schedule: Q01DX009 (ip), vehicle: saline sonified 96 % of control

COc1cccc(NC(=S)C(C#N)C(=O)Nc2cccc(C(F)(F)F)c2)c1 (centres undefined)
inactive: dose: 25.0 mg/kg/injection, schedule: Q04DX002 (ip), vehicle: gum acacia 106 % of control | dose: 50.0 mg/kg/injection, schedule: Q04DX002 (ip), vehicle: gum acacia 109 % of control | dose: 100.0 mg/kg/injection, schedule: Q04DX002 (ip), vehicle: gum acacia 98 % of control and 88 % of control

O=C(NNS(=O)(=O)c1ccc([N+](=O)[O-])cc1)c1ccccc1
inactive: [7] 105 % of control | [8] 102 % of control | [9] 100 % of control

CC(=O)CSc1ccc(C(C)(C)C)cc1
inactive: [7] 102 % of control | [8] 96 % of control | [9] 105 % of control

CCCCCCCCCCCCCCCCOc1ccc(F)cc1F
inactive: dose: 100.0 mg/kg/injection, schedule: Q04DX002 (ip), vehicle: Klucel (hydroxypropylcellulose) (HPC) 118 % of control | dose: 200.0 mg/kg/injection, schedule: Q04DX002 (ip), vehicle: Klucel (hydroxypropylcellulose) (HPC) 96 % of control | dose: 400.0 mg/kg/injection, schedule: Q04DX002 (ip), vehicle: Klucel (hydroxypropylcellulose) (HPC) 96 % of control

C(=NC12CC3CC(CC(C3)C1)C2)c1ccccc1
inactive: dose: 25.0 mg/kg/injection, schedule: Q01DX009 (ip), vehicle: saline 106 % of control | dose: 50.0 mg/kg/injection, schedule: Q01DX009 (ip), vehicle: saline 97 % of control | dose: 200.0 mg/kg/injection, schedule: Q01DX009 (ip), vehicle: saline 100 % of control | dose: 400.0 mg/kg/injection, schedule: Q01DX009 (ip), vehicle: saline 104 % of control

CC(=O)N1C(=O)N(Cl)C(=O)C1(c1ccc(Cl)cc1)c1ccc(Cl)cc1
inactive: dose: 100.0 mg/kg/injection, schedule: Q01DX009 (ip), vehicle: saline with Tween-80 108 % of control | [2] 92 % of control | dose: 200.0 mg/kg/injection, schedule: Q01DX009 (ip), vehicle: saline with Tween-80 104 % of control | [16] 100 % of control | dose: 400.0 mg/kg/injection, schedule: Q01DX009 (ip), vehicle: saline with Tween-80 102 % of control | dose: 400.0 mg/kg/injection, schedule: Q04DX003 (ip), vehicle: saline with Tween-80 98 % of control

O=c1[nH]c2ccncc2c(=O)n1O
inactive: [3] 94 % of control | [4] 104 % of control | [5] 94 % of control
